Source: patent EP4692094A1 (Beijing Konruns Pharmaceutical Co., Ltd., priority 2023, dated 2024)

How the values were obtained:
[1] = Assay for plasma protein binding rate (equilibrium dialysis), mouse plasma; type: in vitro ADME; settings: dialysis 6 h at 37 °C, read-out: Mouse (Fu%)
Protocol: 1.1 Preparation of compounds: The compounds prepared in the examples were each dissolved in dimethylsulfoxide to give solutions at a concentration of 10 mmol/L. • 1) The example compounds were each diluted from 10 mmol/L stock solution to 0.2 mmol/L, i.e., 1 µL of the compound was added to 49 µL of DMSO; • 2) 3 µL of 0.2 mmol/L test compounds were added to 597 µL of blood plasma, and the mixtures were vortexed at 1000 rpm for 2 min; • 3) 50 µL of the plasma containing the drug in 2) was taken, 50 µL of PBS was added, and 300 µL of methanol internal standard* was added to serve as a sample T0; • 4) 120 µL of the plasma containing the drug in 2) was taken and added to one side of an HTD device membrane, and 120 µL of PBS was added to the other side of the membrane; a breathable film was covered, and the plasma and the residual sample in 2) were balanced at 37 °C (100 rpm and 5% CO2) for 6 h; • 5) 50 µL of the dialyzed plasma side sample was taken, 50 µL of PBS was added, and 300 µL of methanol internal standard* was added to serve as a sample P; • 6) 50 µL of the dialyzed PBS side sample was taken, 50 µL of blank plasma was added, and 300 µL of methanol internal standard* was added to serve as a sample B; • 7) 50 µL of the plasma containing the drug in 2) was taken, 50 µL of PBS was added, and 300 µL of methanol internal standard* was added to serve as a sample T6; • 8) All samples were vortexed, mixed homogeneously, and then centrifuged at 3220 g for 40 min at 4 °C; • 9) 100 µL of the supernatant and 100 µL of purified water were mixed homogenously for liquid chromatography-mass spectrometry.
An internal standard method was used, and the plasma protein binding rate, recovery rate, and residual percentage were calculated by using Excel according to the ratio of the peak area of the sample to the peak area of the internal standard. Free rate(%) = (RatioB)/(RatioP) × 100% [formula] Binding rate(%) = 100%−Free rate% [formula] Recovery rate(%) = (RatioB + RatioP)/(RatioT0) × 100% [formula] Remaining percentage(%) = (RatioT6)/(RatioT0) × 100% [formula]
RatioB: a ratio of the peak area of the test substance on the PBS side to the peak area of the internal standard; RatioP: a ratio of the peak area of the test substance on the plasma side to the peak area of the internal standard; RatioT6: a ratio of the peak area of the sample after incubation with the test substance for 6 h to the peak area of the internal standard; RatioT0: a ratio of the peak area of the sample after incubation with the test substance for 0 h to the peak area of the internal standard. Table 8. Plasma protein binding rate (Fu%) data for various species of example compounds

[2] = tested on: human breast cancer cell line ZR-75-1; assay: Assay for cell growth inhibitory activity (3D hydrogel culture, CCK-8); type: cell-based; settings: 96 h; for viability at 0.0001 µM: ZR-75-1, 0.1 nM, read-out: Cell survival rate at example drug concentration 0.1 nM; for viability at 0.001 µM: ZR-75-1, 1 nM, read-out: Cell survival rate at example drug concentration 1 nM; for viability at 0.01 µM: ZR-75-1, 10 nM, read-out: Cell survival rate at example drug concentration 10 nM; for viability at 0.1 µM: ZR-75-1, 100 nM, read-out: Cell survival rate at example drug concentration 100 nM; for viability at 1 µM: ZR-75-1, 1000 nM, read-out: Cell survival rate at example drug concentration 1000 nM
Protocol: The human breast cancer cell line ZR-75-1 (1 × 10^^6 cells per cell culture dish with 100-mm diameter) was cultured in a 1640 culture medium, and 1% double antibiotics (streptomycin and penicillin), 10% fetal bovine serum (FBS), and 1% glutamine (Glumax) were added simultaneously. The cell culture dish was placed at 37 °C with 5% CO2 for 2 days for culture until the cell confluence reached 80%-90% to give cells in the logarithmic growth phase.
• 1) The example compounds were each dissolved in dimethylsulfoxide to give solutions at a concentration of 10 mmol/L, and the solutions were diluted to 250 µmol/L in 10-fold gradient for 5 concentrations, i.e., 0.2 nmol/L, 2 nmol/L, 20 nmol/L, 200 nmol/L, and 2000 nmol/L. • 2) Blank control wells were prepared by adding 0.1% dimethylsulfoxide to the cultured cells, and were used as high-reading control wells; cell-free 3D hydrogel was used as background wells. • 3) The cultured cells were separately added to the compounds in the examples at 0.2 nmol/L, 2 nmol/L, 20 nmol/L, 200 nmol/L, and 2000 nmol/L as test wells, with the same volumes as the original culture solutions.
• 1) The cells were collected, resuspended in a PBS balanced salt solution, and counted; and the cells were mixed with the 3D hydrogel stock solution and prepared into hydrogel cell suspensions with proper density. • 2) The 3D hydrogel cell suspension (5 × 10^^4 cells) was added to each well in 96-well cell culture plates with low surface adsorption, and the plates were incubated at 37 °C with 5% CO2 for 20 min. • 3) The complete culture medium containing the compound prepared in 1.2 with an equal volume to that of the cell suspension in step 2 was added to the 96-well cell culture plate. • 4) The cells were cultured at 37 °C in a 5% CO2 incubator for 96 h.
• 1) The complete culture medium in the upper layer above the hydrogel was pipetted from each well of the 96-well cell culture plate with a vacuum pump or a manual pipette with careful processing to avoid breaking the hydrogel lower layer. • 2) The complete culture medium containing the CCK-8 substrate with an equal volume to that of the original hydrogel was added to each well. • 3) The plate was cultured at 37 °C with 5% CO2 for 1 h. • 4) The 96-well cell culture plate was placed in a microplate reader, and the values of A450 and A630 were separately detected.
Data analysis: The relative inhibitory level was analyzed by using Excel software, and the survival rates of cells under different compound culture conditions were obtained; [formula]
High-reading control well: cells + dimethylsulfoxide; background well: cell-free hydrogel. Table 7. Cell proliferation inhibitory activity of some of example compounds

For COc1ccc2ccoc2c1S(=O)(=O)Nc1noc2cc(Cn3cccn3)nc(OC)c12 [Example 10, N-(6-((1H-Pyrazol-1-yl)methyl)-4-methoxyisoxazolo[4,5-c]pyridin-3-yl)-6-methoxybenzofuran-7-sulfonamide], the fraction unbound at 6 h, 1 µM [1] was 0.0512, the viability at 0.0001 µM [2] was 62% and the viability at 0.001 µM [2] was 45%. For the same compound, the viability at 0.01 µM [2] was 39%, the viability at 0.1 µM [2] was 33% and the viability at 1 µM [2] was 29%.

With COc1cc2c(cc1S(=O)(=O)Nc1noc3cc(Cn4cccn4)nc(OC)c13)CCCC2 [Example 2, N-(6-((1H-Pyrazol-1-yl)methyl)-4-methoxyisoxazolo[4,5-c]pyridin-3-yl)-3-methoxy-5,6,7,8-tetrahydronaphthalene-2-sulfonamide] the fraction unbound at 6 h, 1 µM [1] was 0.0065, the viability at 0.0001 µM [2] was 63% and the viability at 0.001 µM [2] was 51%. The viability at 0.01 µM [2] was 43%, the viability at 0.1 µM [2] was 43% and the viability at 1 µM [2] was 40%.

COc1ccc2c(c1S(=O)(=O)Nc1noc3cc(Cn4cccn4)nc(OC)c13)OCC2 [Example 9, N-(6-((1H-Pyrazol-1-yl)methyl)-4-methoxyisoxazolo[4,5-c]pyridin-3-yl)-6-methoxy-2,3-dihydrobenzofuran-7-sulfonamide] gave a fraction unbound at 6 h, 1 µM [1] of 0.0478, a viability at 0.0001 µM [2] of 63% and a viability at 0.001 µM [2] of 48%. For the same compound, the viability at 0.01 µM [2] was 41%, the viability at 0.1 µM [2] was 38% and the viability at 1 µM [2] was 32%.

With COc1cc2c(cc1S(=O)(=O)Nc1noc3cc(Cn4cccn4)nc(OC)c13)OCC2 [Example 59, N-(6-((1H-Pyrazol-1-yl)methyl)-4-methoxyisoxazolo[4,5-c]pyridin-3-yl)-5-methoxy-2,3-dihydrobenzofuran-6-sulfonamide] the fraction unbound at 6 h, 1 µM [1] was 0.05.

COc1cc2c(cc1S(=O)(=O)Nc1noc3cc(Cn4cccn4)nc(OC)c13)CCCO2 [Example 76, N-(6-((1H-Pyrazol-1-yl)methyl)-4-methoxyisoxazolo[4,5-c]pyridin-3-yl)-7-methoxy-3,4-dihydro-1H-benzopyran-6-sulfonamide] gave a fraction unbound at 6 h, 1 µM [1] of 0.0072.

Compound COc1nc(Cn2cccn2)cc2onc(NS(=O)(=O)c3cccc4c3OCCO4)c12 [Example 4, N-(6-((1H-Pyrazol-1-yl)methyl)-4-methoxyisoxazolo[4,5-c]pyridin-3-yl)-2,3-dihydrobenzo[b][1,4]dioxine-5-sulfonamide] has a viability at 0.0001 µM [2] of 75%, a viability at 0.001 µM [2] of 61% and a viability at 0.01 µM [2] of 41%. The viability at 0.1 µM [2] was 37% and the viability at 1 µM [2] was 29%.

Work on COc1nc(Cn2cccn2)cc2onc(NS(=O)(=O)c3cccc4ccoc34)c12 [Example 5, N-(6-((1H-Pyrazol-1-yl)methyl)-4-methoxyisoxazolo[4,5-c]pyridin-3-yl)benzofuran-7-sulfonamide] yielded a viability at 0.0001 µM [2] of 80%, a viability at 0.001 µM [2] of 85% and a viability at 0.01 µM [2] of 69%. It also gave a viability at 0.1 µM [2] of 54% and a viability at 1 µM [2] of 35%.
